The structures appear in SMILES notation.

Data set [1] has as its system reconstituted human epidermis (RHE) tissues. As to the kind of experiment: Cortisol in RHE-conditioned medium. It counts as cell-based. Conditions: 48 hours, with or without cell viability standardization.
The conditions of data set [2]: ref Nelson et al., 2020; cited from earlier work.
For data set [3], the system named is CB1 receptor. Conditions: ref Vučković et al., 2018; cited from earlier work.
The test system of data set [4] is CB2 receptor. To be noted: ref Vučković et al., 2018; cited from earlier work.
For data set [5] the following is noted: ref Jaidee et al., 2021; cited from earlier work.
The test system of data set [6] is TNF-stimulated neonatal human epidermal KCs. As to the kind of experiment: Microarray gene expression in TNF-stimulated keratinocytes. In kind it is cell-based.
For data set [7], the system named is reconstituted human epidermis (RHE) tissues. As to the kind of experiment: IL-8 levels in RHE-conditioned medium. To be noted: 48 hours. In kind it is cell-based.
For data set [8], the target named is T1, PTGS2 (COX-2) (Homo sapiens, UniProt P35354).
T1 sequence (P35354 18-604): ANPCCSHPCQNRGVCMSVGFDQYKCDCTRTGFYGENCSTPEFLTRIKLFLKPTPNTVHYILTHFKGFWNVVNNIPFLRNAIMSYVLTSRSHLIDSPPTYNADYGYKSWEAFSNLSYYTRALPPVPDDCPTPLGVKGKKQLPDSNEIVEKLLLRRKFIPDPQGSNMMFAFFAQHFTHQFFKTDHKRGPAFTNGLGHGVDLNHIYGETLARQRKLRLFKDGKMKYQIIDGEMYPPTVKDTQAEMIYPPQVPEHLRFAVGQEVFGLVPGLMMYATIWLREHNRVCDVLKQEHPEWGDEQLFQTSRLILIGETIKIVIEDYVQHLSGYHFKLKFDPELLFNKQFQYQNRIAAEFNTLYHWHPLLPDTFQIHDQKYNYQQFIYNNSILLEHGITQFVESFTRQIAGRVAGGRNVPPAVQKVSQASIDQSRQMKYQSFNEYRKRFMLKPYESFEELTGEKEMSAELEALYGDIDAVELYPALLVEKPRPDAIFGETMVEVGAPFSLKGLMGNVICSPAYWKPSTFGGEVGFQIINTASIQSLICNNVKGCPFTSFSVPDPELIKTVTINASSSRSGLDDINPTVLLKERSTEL
As to the kind of experiment: PTGS2. It counts as biochemical, bovine/human. Conditions: COX-2 Inhibition Mean IC50, mean of replicates 1-2 (Fig 16g).

As for `C=C(C)[C@@H]1CCC(C)=C[C@H]1c1c(O)cc(CCCCC)cc1O` [CBD, cannabidiol], in data set [1], the “cortisol levels in RHE-conditioned medium” value was “not observed”. For the same compound, the octanol-water partition coefficient result in data set [2] is given as “high”. In addition, in data set [3], the “affinity for the CB1 receptor” value is listed as “little affinity”. Moreover, in data set [4], the “affinity for the CB2 receptor” value is reported as “little affinity”. The “stability at room temperature” value in data set [5] is “unstable at room temperature”. Also, in data set [6] (TNF-stimulated KCs), the “average increase in the expression of unhealthy skin signature genes” value is reported as 5%. Moreover, the “number of genes decreased” value in data set [6] (vs TNF, FDR < 0.10 with FC < 0.80) worked out at 114 genes. The “number of genes increased” value in data set [6] (vs TNF, FDR < 0.10 with FC > 1.25) came to 205 genes. Also, in data set [6] (vs TNF, FDR < 0.10 with FC > 1.25 or FC < 0.80), the “number of genes with altered expression” value was 319 genes.

For the compound `C=C[C@@](C)(/C=C/c1ccc(O)cc1)CCC=C(C)C` [BAK, bakuchiol], the “IL-8 levels in RHE-conditioned medium” value in data set [7] is “decreased IL-8”. Also, the “cortisol levels in RHE-conditioned medium” value in data set [1] is “significantly decreased cortisol levels”. Moreover, the midpoint of inhibition in data set [8], the IC50, lay at 12.9 µM.
